Source: patent publication EP4803630A1, “CELL FOR IDENTIFYING MAIT CELL LIGAND, AND METHOD FOR SCREENING MAIT CELL LIGAND USING SAID CELL” (The University of Osaka, priority 2023, dated 2025)
Entries after “also recorded” stand apart in the source; their conditions may differ.

Columns and labels:
TCR of MAIT cells = test: co-expression reporter cell assay: NFAT-GFP expression on activation of MAIT TCR; type: cell-based; conditions: 37°C, 6-20 hr, GFP by flow cytometry
Excerpt: (§1) MAIT TCR genes and MR1 molecules genes were synthesized from mouse (Tiloy et al, J Exp Med. 1999) or human (4L4T, Protein Data Bank) and inserted into retroviral vectors (pMX-IRES-ratCD2, pMX-IRES-humanCD8), respectively. These plasmids were co-introduced into Phoenix packaging cells by using PEI MAX (Polysciences). […] MAIT TCR and MR1 co-expressing T cells (hereinafter also referred to as "co-expression reporter cells") were selected using antimouse TCRβ (H57-597), anti-human CD3 (HIT3a), and anti-human/mouse/rat MR1 (26.5) antibodies.
(§2) The validation experiment evaluated GFP expression and MR1 molecule surface expression 6 hr after stimulation of co-expression reporter cells with vehicle control, 5-OP-RU, and Ac-6-FP. GFP was evaluated by flow cytometry. MR1 molecule surface expression was represented by the MFI value of the stimulated cells.
(§3) In the above-mentioned screening, to stimulate "co-expression reporter cells," tissue extract samples and synthetic compounds were dissolved in water and added to each well of a 96-well plate in the absence of methylglyoxal. Some water-insoluble samples were dissolved in ethanol or chloroform/methanol (2:1, vol/vol) and coated onto the plates. "Co-expression reporter cells" (1-3×10^4 cells/100 µL/well) were cultured at 37°C for 6-20 hr, and the expression of GFP and MR1 molecules was analyzed by flow cytometry.

MR1 molecule = test: co-expression reporter cell assay: MR1 surface expression by flow cytometry; type: cell-based; conditions: co-expression reporter cells, 37°C, 6-20 hr, MFI by flow cytometry
Procedure: These plasmids were co-introduced into Phoenix packaging cells by using PEI MAX (Polysciences).
as §2, §3

[1] = system: Human peripheral blood mononuclear cells (PBMCs); test: sc-TCR-RNA-seq analysis of stimulated PBMCs; type: cell-based; conditions: PBMCs stimulated for several days; for gene expression signature (induced genes): in contrast to 5-OP-RU; for TCR expressed by surviving MAIT cells: TRAV1-2-TRAJ33/12/20:TRBV6-4/6-1/20-1
Procedure: Human peripheral blood mononuclear cells (PBMCs) were stimulated with CA7S and CA3S for several days, and then sc-TCR-RNA-seq analysis was performed.

[2] = system: MAIT TCRs derived from mouse (m); test: reporter cell assay with mouse-derived MAIT TCR, mouse or human MR1; type: cell-based; conditions: regardless of the species of the MR1 molecule
Excerpt: as §1
as §3, with “cytometry. The same procedure was performed in the subsequent Examples. • (2) To determine the chemical structure of the activation molecule contained in fraction #84, this fraction was further purified by hydrophilic interaction chromatography (HILIC), and a single fraction (named #84-45) was recovered. […]” for “cytometry.”

[3] = system: MAIT cells in MR1-5-OP-RU tetramer-enriched thymocytes; test: flow cytometry of thymic MAIT cells after administration to Sult2a-deficient mice; type: in vivo, mouse; conditions: 2-4 week old Sult2a-deficient mice administered with CA7S versus not administered
Procedure: The expression of MAIT cells in MR1-5-OP-RU tetramer-enriched thymocytes was analyzed by flow cytometry in 2-4 week old wild-type mice, Sult2a-deficient mice administered with CA7S, and Sult2a-deficient mice not administered with CA7S.
The data were obtained from experiments using three or more mice per group. *P<0.05, **P<0.01, P***<0.005, one-way ANOVA and Tukey's multiple comparison test were used.

[4] = system: MAIT TCRs derived from human (h); test: reporter cell assay with human-derived MAIT TCR, mouse or human MR1; type: cell-based; conditions: regardless of the species of the MR1 molecule
Excerpt: as §1
as §3, with “cytometry. The same procedure was performed in the subsequent Examples. • (2) To determine the chemical structure of the activation molecule contained in fraction #84, this fraction was further purified by hydrophilic interaction chromatography (HILIC), and a single fraction (named #84-45) was recovered. […]” for “cytometry.”

SMILES	activation of the TCR of MAIT cells (GFP expression) (TCR of MAIT cells)	expression of MR1 molecules on the T cell surface (MR1 molecule)	further results
CC(=O)C=Nc1c(NC[C@H](O)[C@H](O)[C@H](O)CO)[nH]c(=O)[nH]c1=O [Analog 5-OP-RU, 5-(2-Oxopropylidene-amino)-6-D-ribitylaminouracil, reference compound]	dose-dependently enhanced GFP expression	–	–
C[C@H](CCC(=O)O)[C@H]1CC[C@H]2[C@@H]3[C@H](O)C[C@@H]4C[C@H](OS(=O)(=O)O)CC[C@]4(C)[C@H]3C[C@H](O)[C@]12C [CA3S, cholic acid 3-sulfate]	activated MAIT reporter cells in the presence of MR1 molecules	similarly increased the expression of the MR1 molecule on the T cell surface	gene expression signature (induced genes) [1]: induced genes involved in homeostasis maintenance, such as IL7R, KLF2, and TCF7; TCR expressed by surviving MAIT cells [1]: expressed a representative MAIT TCR
C[C@H](CCC(=O)O)[C@H]1CC[C@H]2[C@@H]3[C@H](OS(=O)(=O)O)C[C@@H]4C[C@H](O)CC[C@]4(C)[C@H]3C[C@H](O)[C@]12C [CA7S, cholic acid 7-sulfate]	activated reporter cells expressing MAIT TCR; also recorded: weak agonist	similarly increased the expression of the MR1 molecule on the T cell surface	activation of MAIT TCR derived from mouse (m) [2]: activated; MAIT cells in thymocytes [3]: restored MAIT cells; activation of MAIT TCR derived from human (h) [4]: activated; gene expression signature (induced genes) [1]: induced genes involved in homeostasis maintenance, such as IL7R, KLF2, and TCF7; TCR expressed by surviving MAIT cells [1]: expressed a representative MAIT TCR
C[C@H](CCC(=O)O)[C@H]1CC[C@H]2[C@@H]3[C@H](O)C[C@@H]4C[C@H](O)CC[C@]4(C)[C@H]3C[C@H](OS(=O)(=O)O)[C@]12C [CA12S]	did not	similarly increased the expression of the MR1 molecule on the T cell surface	–
C[C@H](CCC(=O)O)[C@H]1CC[C@H]2[C@@H]3[C@H](O)C[C@@H]4C[C@H](O)CC[C@]4(C)[C@H]3C[C@H](O)[C@]12C [CA, cholic acid, reference compound]	did not activate	did not activate	–
C[C@H](CCC(=O)O)[C@H]1CC[C@H]2[C@@H]3CC[C@@H]4C[C@H](OS(=O)(=O)O)CC[C@]4(C)[C@H]3C[C@H](O)[C@]12C [DCA3S, deoxy-CA3S, reference compound]	did not show activity in reporter cells	–	–
C[C@H](CCC(=O)O)[C@H]1CC[C@H]2[C@@H]3CC[C@@H]4C[C@H](OS(=O)(=O)O)CC[C@]4(C)[C@H]3CC[C@]12C [LCA3S, litho-CA3S, reference compound]	did not show activity in reporter cells	–	–
C[C@H](CCC(=O)NCCS(=O)(=O)O)[C@H]1CC[C@H]2[C@@H]3[C@H](O)C[C@@H]4C[C@H](OS(=O)(=O)O)CC[C@]4(C)[C@H]3C[C@H](O)[C@]12C [TCA3S]	showed no activity	showed no activity	–
C[C@H](CCC(=O)NCCS(=O)(=O)O)[C@H]1CC[C@H]2[C@@H]3[C@H](OS(=O)(=O)O)C[C@@H]4C[C@H](O)CC[C@]4(C)[C@H]3C[C@H](O)[C@]12C [TCA7S]	showed no activity	showed no activity	–
C[C@H](CCC(=O)NCCS(=O)(=O)O)[C@H]1CC[C@H]2[C@@H]3CC[C@@H]4C[C@H](OS(=O)(=O)O)CC[C@]4(C)[C@H]3CC[C@]12C [TLCA3S, taurolitho-CA3S, reference compound]	did not show activity in reporter cells	–	–
